Measurements from ChEMBL document CHEMBL1122770, “Quantitative structure-activity relationship of insect juvenile hormone mimetic compounds” (J Med Chem, 1984).

Tests used:
[1] = Partition coefficient (logP); assay type: physicochemical; conditions: octanol/water
[2] = tested on: Tenebrio molitor; assay: Juvenile hormone mimetic activity in Tenebrio molitor (yellow mealworm); assay type: functional; design: unit not given here
[3] = tested on: Tenebrio molitor; assay: Tested for juvenile hormone mimetic activity in Tenebrio molitor (yellow mealworm) excluding from the analysis for activity against Tenebrio molitor; assay type: functional; design: unit not given here

logP ([1]; read-out: logP)	logP [1]	SMILES	pI50 [2]	pI50 [3]
5.06	–	CC(/C=C/CC(C)CCCC(C)(C)O)=C\C(=O)OC(C)C (configuration not stated)	4.33	–
6.49	–	CCC(C)OC(=O)/C=C(C)/C=C/CC(C)CCCC(C)(C)OC (configuration not stated)	4.67	–
5.98	–	CC(=O)OC(C)(C)CCCC(C)C/C=C/C(C)=C/C(=O)OC(C)C (configuration not stated)	3.81	–
5	–	COC(=O)/C=C(C)/C=C/CC(C)CCCC(C)(C)OC (configuration not stated)	0.89	–
7.69	–	CC(/C=C/CC(C)CCCC(C)C)=C\C(=O)OCC(C)C (configuration not stated)	3.8	–
6.36	–	COC(C)(C)CCCC(C)C/C=C/C(C)=C/C(=O)OC(C)(C)C (configuration not stated)	3.81	–
7.56	–	CC(/C=C/CC(C)CCCC(C)(C)C)=C\C(=O)OC(C)C (configuration not stated)	–	–
5.95	–	COC(CCC(C)C/C=C/C(C)=C/C(=O)OC(C)C)C(C)C (configuration not stated)	3.82	–
6.06	–	CCNC(=O)OC(C)(C)CCCC(C)C/C=C/C(C)=C/C(=O)OC(C)C (configuration not stated)	1.79	–
6.49	–	CCOC(C)(C)CCCC(C)C/C=C/C(C)=C/C(=O)OC(C)C (configuration not stated)	4.51	–
6.6	–	C=C(C)CCCC(C)C/C=C/C(C)=C/C(=O)OC(C)C (configuration not stated)	4.1	–
6.02	–	COC(C)(C)CCCC(C)C/C=C/C(C)=C/C(=O)CC(C)C (configuration not stated)	3.49	–
6.9	–	CC(/C=C/CC(C)CCCC(C)(C)OC(C)C)=C\C(=O)OC(C)C (configuration not stated)	3.01	–
4.75	–	COC(CCC(C)C/C=C/C(C)=C/C(=O)OC(C)C)C(C)(C)OC (configuration not stated)	3.88	–
4.45	–	COC(C)(C)CCCC(C)C/C=C/C(C)=C/C(=O)NC(C)C (configuration not stated)	4.21	–
5.53	–	C=CCOC(=O)/C=C(C)/C=C/CC(C)CCCC(C)(C)OC (configuration not stated)	1.41	–

logP ([1]; read-out: logP)	logP [1]	SMILES	pI50 [2]	pI50 [3]
6.02	–	CCC(C)C(=O)/C=C(C)/C=C/CC(C)CCCC(C)(C)OC (configuration not stated)	3.54	–
6.08	–	CCCOC(=O)/C=C(C)/C=C/CC(C)CCCC(C)(C)OC (configuration not stated)	1.65	–
7.03	–	COC(C)(C)CCCC(C)C/C=C/C(C)=C/C(=O)OCCC(C)C (configuration not stated)	0.81	–
7.19	–	COC(C)(C)CCCC(C)C/C=C/C(C)=C/C(=O)SC(C)C (configuration not stated)	5.04	–
6.08	–	CCOC(=O)/C=C(C)/C=C/CC(C)CCCC(C)(C)OCC (configuration not stated)	2.77	–
7.15	–	CC(/C=C/CC(C)CCCC(C)C)=C\C(=O)OC(C)C (configuration not stated)	4.03	–
6.2	–	COC(=O)/C=C(C)/C=C/CC(C)CCCC(C)C (configuration not stated)	2.2	–
5.54	–	CCOC(=O)/C=C(C)/C=C/CC(C)CCCC(C)(C)OC (configuration not stated)	1.92	–
6.6	–	CC(C)=CCCC(C)C/C=C/C(C)=C/C(=O)OC(C)C (configuration not stated)	3.67	–
3.86	–	COC(C)(C)C(O)CCC(C)C/C=C/C(C)=C/C(=O)OC(C)C (configuration not stated)	2.61	–
6.77	–	CSC(C)(C)CCCC(C)C/C=C/C(C)=C/C(=O)OC(C)C (configuration not stated)	3.77	–
7.69	–	CCC(C)OC(=O)/C=C(C)/C=C/CC(C)CCCC(C)C (configuration not stated)	3.87	–
5.4	–	CC(/C=C/CC(C)CCCC(C)(C)OC=O)=C\C(=O)OC(C)C (configuration not stated)	4.43	–
5.94	–	C=CC(C)OC(=O)/C=C(C)/C=C/CC(C)CCCC(C)(C)OC (configuration not stated)	4.39	–
6.85	–	CC(/C=C/CC(C)CCCC(C)(C)Cl)=C\C(=O)OC(C)C (configuration not stated)	3.75	–

Further lines, the molecule ahead of its results:

SMILES	logP ([1]; read-out: logP)	logP [1]	pI50 [2]	pI50 [3]
C#CCOC(=O)/C=C(C)/C=C/CC(C)CCCC(C)(C)OC (configuration not stated)	4.66	–	1.34	–
CC(/C=C/CC(C)CCCC(C)C)=C\C(=O)Oc1ccccc1 (configuration not stated)	7.67	–	1.5	–
CCOC(=O)/C=C(C)/C=C/CC(C)CCCC(C)CC (configuration not stated)	7.81	–	3.47	–
C#CCCOC(=O)/C=C(C)/C=C/CC(C)CCCC(C)(C)OC (configuration not stated)	5.2	–	–	<1.11
CCOC(=O)/C=C(C)/C=C/CC(C)CCC(SCC)C(C)C (configuration not stated)	6.9	–	–	1.51
C#CCSC(=O)/C=C(C)/C=C/CC(C)CCCC(C)(C)OC (configuration not stated)	5.9	–	2.15	–
CCSC(=O)/C=C(C)/C=C/CC(C)CCCC(C)C (configuration not stated)	7.98	–	4.05	–
CC(/C=C/CC(C)CCCC(C)C)=C\C(=O)c1ccccc1 (configuration not stated)	7.26	–	3.52	–
CC(/C=C/CC(C)CCCC(C)C)=C\C(=O)CC(C)C (configuration not stated)	7.22	–	3.14	–
COC(C)(C)CCCC(C)C/C=C/C(C)=C/C(=O)O (configuration not stated)	4.79	–	–	–
CC(/C=C/CC(C)CCCC(C)C)=C\C(=O)NCC(C)C (configuration not stated)	6.19	–	0.62	–
CCCCOC(=O)/C=C(C)/C=C/CC(C)CCCC(C)(C)OC (configuration not stated)	6.62	–	0.93	–
COC(C)(C)CCCC(C)C/C=C/C(C)=C/C(=O)N(C)C (configuration not stated)	3.74	–	3.8	–
CCN(CC)C(=O)/C=C(C)/C=C/CC(C)CCCC(C)(C)OC (configuration not stated)	4.82	–	5.51	–
C/C=C/COC(=O)/C=C(C)/C=C/CC(C)CCCC(C)(C)OC (configuration not stated)	6.07	–	2.25	–
CCCC(=O)/C=C(C)/C=C/CC(C)CCCC(C)(C)OC (configuration not stated)	5.61	–	5.73	–
CCOC(=O)/C=C(C)/C=C/CC(C)CCC(O)C(C)C (configuration not stated)	4.65	–	–	<0.45
CC(/C=C/CC(C)CCCC(C)C)=C\C(=O)N(C)C (configuration not stated)	4.94	–	3.7	–
CCN(CC)C(=O)/C=C(C)/C=C/CC(C)CCC=C(C)C (configuration not stated)	5.47	–	1.7	–
COC(C)(C)CCCC(C)C/C=C/C(C)=C/C(=O)SC (configuration not stated)	6.24	–	3.47	–
C=CCNC(=O)/C=C(C)/C=C/CC(C)CCCC(C)C (configuration not stated)	5.23	–	4.33	–

SMILES	logP ([1]; read-out: logP)	logP [1]	pI50 [2]	pI50 [3]
CCNC(=O)/C=C(C)/C=C/CC(C)CCC=C(C)C (configuration not stated)	4.69	–	4.78	–
CCN(CC)C(=O)/C=C(C)/C=C/CC(C)CCCC(C)C (configuration not stated)	6.02	–	4.63	–
CCNC(=O)/C=C(C)/C=C/CC(C)CCCC(C)(C)C (configuration not stated)	5.65	–	4.45	–
CCOC(=O)/C=C(C)/C=C/CC(C)CCC(OC)C(C)C (configuration not stated)	5.54	–	2.54	–
C=CCOC(=O)/C=C(C)/C=C/CC(C)CCCC(C)C (configuration not stated)	6.73	–	3.51	–
CCOC(=O)/C=C(C)/C=C/CC(C)CCCC(C)(C)SC (configuration not stated)	6.36	–	2.24	–
CCOC(=O)/C=C(C)/C=C/CC(C)CCCC(C)(C)C (configuration not stated)	7.15	–	2.5	–
CCOC(=O)/C=C(C)/C=C/CC(C)CCC(=O)C(C)C (configuration not stated)	4.3	–	–	<0.45
C=C(C)CCCC(C)C/C=C/C(C)=C/C(=O)OCC (configuration not stated)	6.19	–	2.49	–
COC(C)(C)CCCC(C)C/C=C/C(C)=C/C(=O)OC1CCCC1 (configuration not stated)	7.01	–	4.32	–
CCC(=O)/C=C(C)/C=C/CC(C)CCCC(C)C (stereo in doubt; 83)	6.27	–	4.89	–
CC(/C=C/CC(C)CCCC(C)C)=C\C(=O)OCc1ccccc1 (configuration not stated)	7.87	–	–	<0.52
CC(/C=C/CC(C)CCCC(C)C)=C\C(=O)NC(C)C (configuration not stated)	5.65	–	4.33	–
COC(C)(C)CCCC(C)C/C=C/C(C)=C/C(=O)OC(C)C (configuration not stated)	5.95	–	–	–
C#CCOC(=O)/C=C(C)/C=C/CC(C)CCCC(C)C (configuration not stated) [KINOPRENE]	5.86	–	–	–
CCOC(=O)/C=C(C)/C=C/CC(C)CCC1OC1(C)C (configuration not stated)	4.76	–	2.22	–
CCC(=O)/C=C(C)/C=C/CC(C)CCCC(C)C (stereo in doubt; 101)	–	6.68	4.1	–
CCCC(=O)/C=C(C)/C=C/CC(C)CCCC(C)C (configuration not stated)	6.81	–	4.7	–
CCSC(=O)/C=C(C)/C=C/CC(C)CCCC(C)(C)OC (configuration not stated)	6.78	–	3.49	–
C=CCSC(=O)/C=C(C)/C=C/CC(C)CCCC(C)C (configuration not stated)	7.97	–	3.26	–
C=CCSC(=O)/C=C(C)/C=C/CC(C)CCCC(C)(C)OC (configuration not stated)	6.77	–	2.06	–

SMILES	logP ([1]; read-out: logP)	logP [1]	pI50 [2]	pI50 [3]
CCC(=O)/C=C(C)/C=C/CC(C)CCCC(C)(C)O (configuration not stated)	4.18	–	–	6.04
COC(C)(C)CCCC(C)C/C=C/C(C)=C/C(=O)NC1CC1 (configuration not stated)	–	4.04	3.74	–
CC(/C=C/CC(C)CCCC(C)C)=C\C(=O)SC(C)C (configuration not stated)	8.39	–	4.22	–
CCOC(=O)/C=C(C)/C=C/CC(C)CCC(OC)C(C)(C)OC (configuration not stated)	4.34	–	1.31	–
CCOC(=O)/C=C(C)/C=C/CC(C)CCC=C(C)C (configuration not stated)	6.19	–	2.38	–
CCOC(=O)/C=C(C)/C=C/CC(C)CCCC(C)(C)OC(C)=O (configuration not stated)	5.57	–	2.28	–
CCNC(=O)/C=C(C)/C=C/CC(C)CCCC(C)C (configuration not stated)	5.24	–	4.76	–
CCSC(=O)/C=C(C)/C=C/CC(C)CCCC(C)(C)C (configuration not stated)	8.39	–	–	–
COC(C)(C)CCCC(C)C/C=C/C(C)=C/C(=O)OC1CC1 (configuration not stated)	5.71	–	2.89	–
CCOC(=O)/C=C(C)/C=C/CC(C)CCCC(C)C (configuration not stated) [HYDROPRENE]	6.74	–	–	–
C#CCSC(=O)/C=C(C)/C=C/CC(C)CCCC(C)C (configuration not stated)	5.07	–	3.47	–
COC(C)(C)CCCC(C)C/C=C/C(C)=C/C(N)=O (configuration not stated)	3.52	–	0.05	–
CCOC(=O)/C=C(C)/C=C/CC(C)CCCC(C)(C)Cl (configuration not stated)	6.44	–	3.5	–
CC#CCOC(=O)/C=C(C)/C=C/CC(C)CCCC(C)C (configuration not stated)	6.4	–	2.12	–
CCN(CC)C(=O)/C=C(C)/C=C/CC(C)CCC1OC1(C)C (configuration not stated)	4.04	–	3.85	–
CCCOC(=O)/C=C(C)/C=C/CC(C)CCCC(C)C (configuration not stated)	7.28	–	2.71	–
CCC(=O)/C=C(C)/C=C/CC(C)CCCC(C)(C)OC (configuration not stated)	5.07	–	5.78	–
COC(C)(C)CCCC(C)C/C=C/C(C)=C/C(=O)OC1CCC1 (configuration not stated)	6.44	–	2.79	–
CCSC(=O)/C=C(C)/C=C/CC(C)CCCC(C)(C)OC(C)=O (configuration not stated)	6.81	–	2.83	–
CSC(=O)/C=C(C)/C=C/CC(C)CCCC(C)C (configuration not stated)	7.44	–	3.25	–
CCSC(=O)/C=C(C)/C=C/CC(C)CCCC(C)(C)O (configuration not stated)	5.89	–	3.43	–
